The values that follow are results of earlier work, collected in PubChem BioAssay AID1259409 (Chemical Carcinogenesis Research Information System (CCRIS), 2018).

This data set concerns rodent chemically induced tumor inhibition, incidence and multiplicity. Kind of data set: CCRIS tumor inhibitor studies. Conditions: Route [Inhibitor]: ORAL, Species: RAT, Strain/Sex: F344/MALE, Promoter: NONE USED. The text has this: The CCRIS database contains chemical records with carcinogenicity, mutagenicity, tumor promotion, and tumor inhibition test results. It was developed by the National Cancer Institute (NCI). Data are derived from studies cited in primary journals, current awareness tools, NCI reports, and other sources. Test results have been reviewed by experts in carcinogenesis and mutagenesis.
CCRIS provides historical information from the years 1985 - 2011. It is no longer updated.
This is an archive assay for CCRIS tumor inhibitor studies.

Take `O=C1O[C@H]([C@@H](O)CO)C(O)=C1O`: the “tumour outcome (control, treated, inhibition, significance)” value (Carcinogen: N-BIS(2-HYDROXYPROPYL)NITROSAMINE, 53609-64-6, Dose [Inhibitor]: 0, 5% IN DIET FOR 30 WK BEGINNING POST CARCINOGEN TREATMENT (STUDY DURATION: 32 WK), Target Tissue: Type of Lesion: BLADDER: ADENOMA, Dose [Carcinogen]: 0.1% IN DRINKING WATER FOR 2 WK) is recorded as 5%, 10%, -100%, not calculated; the “tumour outcome (control, treated, inhibition, significance)” value (Carcinogen: N-BIS(2-HYDROXYPROPYL)NITROSAMINE, 53609-64-6, Dose [Inhibitor]: 0, 5% IN DIET FOR 30 WK BEGINNING POST CARCINOGEN TREATMENT (STUDY DURATION: 32 WK), Target Tissue: Type of Lesion: KIDNEY: TUMOR, Dose [Carcinogen]: 0.1% IN DRINKING WATER FOR 2 WK) is listed as 10%, 30%, -200%, not calculated; the “tumour outcome (control, treated, inhibition, significance)” value (Carcinogen: N-BIS(2-HYDROXYPROPYL)NITROSAMINE, 53609-64-6, Dose [Inhibitor]: 0, 5% IN DIET FOR 30 WK BEGINNING POST CARCINOGEN TREATMENT (STUDY DURATION: 32 WK), Target Tissue: Type of Lesion: LUNG: ADENOMA, Dose [Carcinogen]: 0.1% IN DRINKING WATER FOR 2 WK) is 100%, 100%, 0%, not significant; the “tumour outcome (control, treated, inhibition, significance)” value (Carcinogen: N-BIS(2-HYDROXYPROPYL)NITROSAMINE, 53609-64-6, Dose [Inhibitor]: 0, 5% IN DIET FOR 30 WK BEGINNING POST CARCINOGEN TREATMENT (STUDY DURATION: 32 WK), Target Tissue: Type of Lesion: LUNG: CARCINOMA, Dose [Carcinogen]: 0.1% IN DRINKING WATER FOR 2 WK) is on record as 45%, 20%, 56%, not calculated; the “tumour outcome (control, treated, inhibition, significance)” value (Carcinogen: N-BIS(2-HYDROXYPROPYL)NITROSAMINE, 53609-64-6, Dose [Inhibitor]: 0, 5% IN DIET FOR 30 WK BEGINNING POST CARCINOGEN TREATMENT (STUDY DURATION: 32 WK), Target Tissue: Type of Lesion: THYROID: ADENOMA, Dose [Carcinogen]: 0.1% IN DRINKING WATER FOR 2 WK) is listed as 5%, 30%, -500%, not calculated; the “tumour outcome (control, treated, inhibition, significance)” value (Carcinogen: N-BIS(2-HYDROXYPROPYL)NITROSAMINE, 53609-64-6, Dose [Inhibitor]: 0, 5% IN DIET FOR 30 WK BEGINNING POST CARCINOGEN TREATMENT (STUDY DURATION: 32 WK), Target Tissue: Type of Lesion: THYROID: CARCINOMA, Dose [Carcinogen]: 0.1% IN DRINKING WATER FOR 2 WK) was 20%, 10%, 50%, not calculated. Further, the “tumour outcome (control, treated, inhibition, significance)” value runs as follows: (Carcinogen: N-BUTYL-N-(4-HYDROXYBUTYL)NITROSAMINE, 3817-11-6, Dose [Inhibitor]: 4.45% IN BASAL DIET ADMINISTERED SIMULTANEOUSLY WITH CARCINOGEN DOSE FOR 20 WK (STUDY DURATION: 20 WK), Target Tissue: Type of Lesion: BLADDER: CARCINOMA, Dose [Carcinogen]: 0.025% IN DRINKING WATER FOR 20 WK) 3/15 (20%), 6/14 (43%), -115%, not calculated; (Carcinogen: N-BUTYL-N-(4-HYDROXYBUTYL)NITROSAMINE, 3817-11-6, Dose [Inhibitor]: 4.45% IN BASAL DIET ADMINISTERED SIMULTANEOUSLY WITH CARCINOGEN DOSE FOR 20 WK (STUDY DURATION: 20 WK), Target Tissue: Type of Lesion: BLADDER: PAPILLOMA, Dose [Carcinogen]: 0.025% IN DRINKING WATER FOR 20 WK (FOR A TOTAL INTAKE OF 4.0 MMOL/RAT)) 4/15 (27%), 4/14 (29%), -7%, not calculated; (Carcinogen: N-BUTYL-N-(4-HYDROXYBUTYL)NITROSAMINE, 3817-11-6, Dose [Inhibitor]: 5% DIET DAILY FOR 34 WK BEGINNING POST CARCINOGEN TREATMENT (STUDY DURATION: 38 WK), Target Tissue: Type of Lesion: URINARY BLADDER: PAPILLOMA, Dose [Carcinogen]: 0.01% IN DRINKING WATER FOR 4 WK) 33%, 21%, 36%, not significant; (Carcinogen: N-BUTYL-N-(4-HYDROXYBUTYL)NITROSAMINE, 3817-11-6, Dose [Inhibitor]: 5% IN BASAL DIET ADMINISTERED SIMULTANEOUSLY WITH CARCINOGEN DOSE FOR 20 WK (STUDY DURATION: 20 WK), Target Tissue: Type of Lesion: BLADDER: CARCINOMA, Dose [Carcinogen]: 0.025% IN DRINKING WATER FOR 20 WK) 3/15 (20%), 6/15 (40%), -100%, not calculated; (Carcinogen: N-BUTYL-N-(4-HYDROXYBUTYL)NITROSAMINE, 3817-11-6, Dose [Inhibitor]: 5% IN BASAL DIET ADMINISTERED SIMULTANEOUSLY WITH CARCINOGEN DOSE FOR 20 WK (STUDY DURATION: 20 WK), Target Tissue: Type of Lesion: BLADDER: PAPILLOMA, Dose [Carcinogen]: 0.025% IN DRINKING WATER FOR 20 WK (FOR A TOTAL INTAKE OF 4.7 MMOL/RAT)) 4/15 (27%), 2/15 (13%), 50%, not significant; (Carcinogen: N-ETHYL-N-(4-HYDROXYBUTYL)NITROSAMINE, 54897-62-0, Dose [Inhibitor]: 4.45% IN BASAL DIET ADMINISTERED SIMULTANEOUSLY WITH CARCINOGEN DOSE FOR 20 WK (STUDY DURATION: 20 WK), Target Tissue: Type of Lesion: BLADDER: CARCINOMA, Dose [Carcinogen]: 0.021% IN DRINKING WATER FOR 20 WK) 13/15 (87%), 14/15 (93%), -8%, not calculated. The “tumour outcome (control, treated, inhibition, significance)” value (Carcinogen: N-ETHYL-N-(4-HYDROXYBUTYL)NITROSAMINE, 54897-62-0, Dose [Inhibitor]: 4.45% IN BASAL DIET ADMINISTERED SIMULTANEOUSLY WITH CARCINOGEN DOSE FOR 20 WK (STUDY DURATION: 20 WK), Target Tissue: Type of Lesion: BLADDER: PAPILLOMA, Dose [Carcinogen]: 0.021% IN DRINKING WATER FOR 20 WK) is on record as 14/15 (93%), 15/15 (100%), -7%, not calculated and the “tumour outcome (control, treated, inhibition, significance)” value (Carcinogen: N-ETHYL-N-(4-HYDROXYBUTYL)NITROSAMINE, 54897-62-0, Dose [Inhibitor]: 5% IN BASAL DIET ADMINISTERED SIMULTANEOUSLY WITH CARCINOGEN DOSE FOR 20 WK (STUDY DURATION: 20 WK), Target Tissue: Type of Lesion: BLADDER: CARCINOMA, Dose [Carcinogen]: 0.021% IN DRINKING WATER FOR 20 WK) was 13/15 (87%), 13/15 (87%), 0%, not significant.
